Where only a bound is given, the exact number is not on record here.

The test system of assay [1] is TCF/β-Catenin driven β-Galactosidase expression. As to the kind of experiment: TCF/β-catenin driven β-galactosidase reporter in lungs of bleomycin-treated Bat-Gal transgenic mice (X-Gal staining). Particulars: intratracheal bleomycin, 5 mg/Kg/day via minipump (subcutaneously). The class given is in vivo, mouse. The procedure: Using this murine model of pulmonary fibrosis in transgenic Bat-Gal mice, ICG-001 (5 mg/Kg/day, administered via minipump) blocked >95% of bleomycin-induced TCF/O-catenin transcription.
These mice have a Beta-Galactosidase transgene driven by a TCF/Catenin driven promoter (i.e. a read out for activated Wnt/catenin signaling). The mice were given intratracheal saline or bleomycin and either treated with ICG-001 (5 mgs/Kg/day subcutaneously) or saline as vehicle control. The mice were sacrificed and the lungs sectioned and stained with X-Gal (blue color) A) intratracheal bleo+saline. B) intracheal bleo+ICG-001 C) saline+saline.
The dose was selected because ICG-001 reduces TCF/β-Catenin driven β-Galactosidase expression >95% at 5 mgs/Kg/day.

Assay [2] concerns bleomycin induced fibrosis. As to the kind of experiment: Bleomycin induced murine pulmonary fibrosis model (lung sections stained for collagen, body weight, survival). It is filed as in vivo, mouse. The procedure:
Murine models of bleomycin induced fibrosis have been developed in order to study fibrotic disease progression.
There is an absence of airway epithelium in lower left compared to upper left (see arrow heads) and extensive collagen deposition (lower left). On the sixth day, either saline (upper right) or ICG-001 (5 mgs/Kg/day) was administered for 10 days after which the mice were sacrificed and sectioned. Of interest is the upper right (saline treatment) showing lack of normal airway epithelialization, extensive collagen deposition and intra-airway hypercellularity (fibroblasts and inflammatory influx).
FIGS. 16 and 17 show RT-PCR data for S100A4 (FIG. 16) and collagen1A2 (FIG. 17), which are increased in the bleomycin treated mice (treated with saline control).
The procedures were performed using the animal model as described in Example 2 (FIG. 15), and the sectioned lungs were stained for collagen.

Another assay has as its system S100A4 (FSP-1). As to the kind of experiment: Western blot for S100A4 on whole cell lysates of IPF patient fibroblasts. The class given is cell-based, human. Particulars: IPF patient fibroblasts / ATCC IPF cells, RPMI1640+10% FBS, 2 days. The method, then: (§1) Western blots for S100A4 (also know as FSP-1 or fibroblast specific protein-1) and E-Cadherin were performed on whole cell lysates (FIG. 20).

Another assay has as its system E-Cadherin. As to the kind of experiment: Western blot for E-Cadherin on whole cell lysates of IPF patient fibroblasts. The class given is cell-based, human. Particulars: RPMI1640+10% FBS, 2 days. The procedure:
as §1
A general note: In western blotting, separated proteins are transferred to a membrane and probed.

In another assay the test system is Aquaporin 5. The assay is described as follows: Aquaporin 5 immunostaining of lung tissue in bleomycin mouse model. It is filed as in vivo. Particulars: bleomycin and ICG-001 vs bleomycin alone. The procedure:
The aquaporins are water channels expressed in a variety of cell types. Aquaporin 5 is involved in the transportation of water across the apical surface of the alveolar epithelium and the epithelia of the submucosal glands in the upper airway and nasopharynx. (Krane, C. M., P.N.A.S. 98:14192-4, 2001; Yang, F. J. Biol. Chem. 278:32173-80, 2003). Because aquaporin 5 is a marker of Type 1 (differentiated) lung epithelium, its expression was assayed in lung tissue treated with bleomycin (FIG. 22A), bleomycin and ICG-001 (FIG. 22B), and saline (FIG. 22C), using the animal model as described in Example 2 (FIG. 15), and immunostaining with an antibody specific for Aquaporin 5.

[3] abbreviates: C57/B16 mice, bleomycin 5 days, then 5 mgs/Kg/day for 10 days.
The mark [4] stands for this setting: bleomycin and ICG-001 vs bleomycin.
Where [5] appears, read: bleomycin model, 5 mg/Kg/day via minipump.

Regarding `O=C1[C@H](Cc2ccc(O)cc2)N2C(=O)CCN(C(=O)NCc3ccccc3)[C@H]2CN1Cc1cccc2ccccc12` [ICG-001], the “block of bleomycin-induced TCF/β-catenin transcription (β-Galactosidase expression)” value in assay [1] is given as more than 95%. For the same compound, in assay [2] (setting [3]), the “airway appearance in trichrome stained lung sections” value is “essential normal”, the body weight entry is listed as “regained normal body weight” and the “collagen levels in trichrome stained lung sections” value is “normal collagen levels”. The survival result in assay [2] (C57/B16 mice, bleomycin 5 days, then 5 mgs/Kg/day for 10 days, untreated controls did not survive) was “survived”. Further, in assay [2] (setting [4]), the “alveolar fibrosis (lungs stained for collagen)” value was “prevented” and the “interstitial fibrosis (lungs stained for collagen)” value is given as “prevented”. Further, in assay [2] (setting [5]), the “disease progression, as judged by mortality, histopathology and endogenous gene expression” value is reported as “not only halted but reversed”; the mortality entry is on record as “reduced”. The “fibrosis over the 25 days of treatment” value in assay [2] (bleomycin model, 25 days of treatment) is “reversed fibrosis”. Further, in the assay with S100A4 (FSP-1), the “S100A4 expression (Western blot)” value was “decreased”. Also, the “E-cadherin expression (Western blot; also mRNA level)” value in the assay on E-Cadherin was “increased”. The “aquaporin 5 expression in lung tissue (immunostaining)” value in the assay on Aquaporin 5 is “greatly increased”.

(Values after patent publication US20080242669A1, “METHODS RELATING TO THE TREATMENT OF FIBROTIC DISORDERS” (UNIVERSITY OF WASHINGTON, priority 2005, published 2008).)
